Experimental data taken from patent US9924715B2, “Zinc or copper (II) salt and use thereof as a biocide” (LABORATORIYA BIO ZET, LLC, priority 2014, dated 2018).
“And” between values parts separate entries of the source, which are not always exact repeats. Equal values may be shown once.

What was measured:
Format in all cases: cell-based
fungal spores = assay: Fungicidal activity, GOST 30028.4-2006, resistance of treated materials
Method: The fungicidal activity of the proposed salts is determined according to GOST 30028.4-2006 by testing samples of various materials treated with these salts for resistance to fungal spores. Test results in terms of tolerance time (in days) are given in Table 4 wherein tolerance time for untreated materials are given for comparison.

E. coli No. 906 = assay: Bactericidal activity: exposure in solution, neutralization, inoculation on solid medium; set-up: key to Bacterial growth after exposure (colony-forming units in 1 ml): NG—no growth; CG—confluent growth; conditions: for Bacterial growth after exposure (colony-forming units in 1 ml): E. coli 906; for Bactericidal effect: E. coli No. 906
[1] = test system: clinical strain P. aeruginosa; assay: as above; set-up: key to Bacterial growth after exposure (colony-forming units in 1 ml): NG—no growth; CG—confluent growth; conditions: for Bactericidal effect: 4.0%
S. aureus No. 1257 = assay: as above; set-up: key to Bacterial growth after exposure (colony-forming units in 1 ml): NG—no growth; CG—confluent growth; conditions: for Bacterial growth after exposure (colony-forming units in 1 ml): S. aureus 1257; for Bactericidal effect: S. aureus No. 1257
[2] = Emulsion polyvinyl chloride, additive content 5 wt %, untreated control 6 days
[3] = Paper impregnated with latex SKS 65 GP, additive content 5 wt %, untreated control 4 days

Compound: C=CC(=O)[O-].CCCCCCCCCC(=O)[O-].[Cu+2] [Copper acrylate-caprinate]
- Tolerance time (fungal spores; [2]): 20 days
- Tolerance time (fungal spores; [3]): 19 days
- Tolerance time (fungal spores; Paper impregnated with petrolatum base, additive content 5 wt %, untreated control 15 days): 21 days

Compound: C=CC(=O)[O-].CCCCCCCCCCCCCCCCCC(=O)[O-].[Cu+2] [Copper acrylate-stearate]
- Bacterial growth after exposure (colony-forming units in 1 ml) (E. coli No. 906; 2.0 wt %, exposure 5 min): CG
- Bacterial growth after exposure (colony-forming units in 1 ml) (E. coli No. 906; 2.0 wt %, exposure 15 min): 100 CFU
- Bacterial growth after exposure (colony-forming units in 1 ml) (E. coli No. 906; 2.0 wt %, exposure 30 min): 10 CFU
- Bacterial growth after exposure (colony-forming units in 1 ml) (E. coli No. 906; 2.0 wt %, exposure 60 min): NG
- Bacterial growth after exposure (colony-forming units in 1 ml) (E. coli No. 906; 4.0 wt %, exposure 5 min): NG
- Bacterial growth after exposure (colony-forming units in 1 ml) (E. coli No. 906; 4.0 wt %, exposure 15 min): NG
- Bacterial growth after exposure (colony-forming units in 1 ml) (E. coli No. 906; 4.0 wt %, exposure 30 min): NG
- Bacterial growth after exposure (colony-forming units in 1 ml) (E. coli No. 906; 4.0 wt %, exposure 60 min): NG
- Bactericidal effect (E. coli No. 906; 2.0%, exposure 60 min): sustained bactericidal effect
- Bactericidal effect (E. coli No. 906; 4.0%, exposure from 5 min): sustained bactericidal effect
- Tolerance time (fungal spores; [2]): 12 days
- Tolerance time (fungal spores; [3]): 16 days
- Bacterial growth after exposure (colony-forming units in 1 ml) ([1]; 2.0 wt %, exposure 5 min): CG
- Bacterial growth after exposure (colony-forming units in 1 ml) ([1]; 2.0 wt %, exposure 15 min): CG
- Bacterial growth after exposure (colony-forming units in 1 ml) ([1]; 2.0 wt %, exposure 30 min): CG
- Bacterial growth after exposure (colony-forming units in 1 ml) ([1]; 2.0 wt %, exposure 60 min): CG
- Bactericidal effect ([1]; exposure of more than 30 min): bactericidal effect
- Bacterial growth after exposure (colony-forming units in 1 ml) ([1]; 4.0 wt %, exposure 5 min): CG
- Bacterial growth after exposure (colony-forming units in 1 ml) ([1]; 4.0 wt %, exposure 15 min): >300 CFU
- Bacterial growth after exposure (colony-forming units in 1 ml) ([1]; 4.0 wt %, exposure 60 min): NG
- Bacterial growth after exposure (colony-forming units in 1 ml) (S. aureus No. 1257; 2.0 wt %, exposure 5 min): CG
- Bacterial growth after exposure (colony-forming units in 1 ml) (S. aureus No. 1257; 2.0 wt %, exposure 15 min): >300 CFU
- Bacterial growth after exposure (colony-forming units in 1 ml) (S. aureus No. 1257; 2.0 wt %, exposure 30 min): 25 CFU
- Bacterial growth after exposure (colony-forming units in 1 ml) (S. aureus No. 1257; 2.0 wt %, exposure 60 min): NG
- Bacterial growth after exposure (colony-forming units in 1 ml) (S. aureus No. 1257; 4.0 wt %, exposure 5 min): NG
- Bacterial growth after exposure (colony-forming units in 1 ml) (S. aureus No. 1257; 4.0 wt %, exposure 15 min): NG
- Bacterial growth after exposure (colony-forming units in 1 ml) (S. aureus No. 1257; 4.0 wt %, exposure 30 min): NG
- Bacterial growth after exposure (colony-forming units in 1 ml) (S. aureus No. 1257; 4.0 wt %, exposure 60 min): NG
- Bactericidal effect (S. aureus No. 1257; 2.0%, exposure 60 min): sustained bactericidal effect
- Bactericidal effect (S. aureus No. 1257; 4.0%, exposure from 5 min): sustained bactericidal effect

Compound: C/C=C/C(=O)[O-].C=CC(=O)[O-].[Zn+2] [Zinc acrylate-crotonate, zinc acrylate-crotonate]
- Bacterial growth after exposure (colony-forming units in 1 ml) (E. coli No. 906; 2.0 wt %, exposure 5 min): 75 CFU
- Bacterial growth after exposure (colony-forming units in 1 ml) (E. coli No. 906; 2.0 wt %, exposure 15 min): 42 CFU
- Bacterial growth after exposure (colony-forming units in 1 ml) (E. coli No. 906; 2.0 wt %, exposure 30 min): >300 CFU
- Bacterial growth after exposure (colony-forming units in 1 ml) (E. coli No. 906; 4.0 wt %, exposure 5 min): NG
- Bacterial growth after exposure (colony-forming units in 1 ml) (E. coli No. 906; 4.0 wt %, exposure 15 min): NG
- Bacterial growth after exposure (colony-forming units in 1 ml) (E. coli No. 906; 4.0 wt %, exposure 30 min): NG
- Bacterial growth after exposure (colony-forming units in 1 ml) (E. coli No. 906; 4.0 wt %, exposure 60 min): NG
- Bactericidal effect (E. coli No. 906; 4.0%, exposure from 15 min): sustained bactericidal effect
- Bacterial growth after exposure (colony-forming units in 1 ml) ([1]; 2.0 wt %, exposure 5 min): >300 CFU
- Bacterial growth after exposure (colony-forming units in 1 ml) ([1]; 2.0 wt %, exposure 15 min): 10 CFU
- Bacterial growth after exposure (colony-forming units in 1 ml) ([1]; 2.0 wt %, exposure 30 min): 4 CFU
- Bactericidal effect ([1]; exposure from 15 min): sustained bactericidal effect
- Bacterial growth after exposure (colony-forming units in 1 ml) ([1]; 4.0 wt %, exposure 5 min): 1 CFU
- Bacterial growth after exposure (colony-forming units in 1 ml) ([1]; 4.0 wt %, exposure 15 min): NG
- Bacterial growth after exposure (colony-forming units in 1 ml) ([1]; 4.0 wt %, exposure 30 min): NG
- Bacterial growth after exposure (colony-forming units in 1 ml) ([1]; 4.0 wt %, exposure 60 min): NG
- Bacterial growth after exposure (colony-forming units in 1 ml) (S. aureus No. 1257; 2.0 wt %, exposure 5 min): CG
- Bacterial growth after exposure (colony-forming units in 1 ml) (S. aureus No. 1257; 2.0 wt %, exposure 15 min): CG
- Bacterial growth after exposure (colony-forming units in 1 ml) (S. aureus No. 1257; 2.0 wt %, exposure 30 min): CG
- Bacterial growth after exposure (colony-forming units in 1 ml) (S. aureus No. 1257; 2.0 wt %, exposure 60 min): >300 CFU
- Bacterial growth after exposure (colony-forming units in 1 ml) (S. aureus No. 1257; 4.0 wt %, exposure 5 min): 7 CFU
- Bacterial growth after exposure (colony-forming units in 1 ml) (S. aureus No. 1257; 4.0 wt %, exposure 15 min): NG
- Bacterial growth after exposure (colony-forming units in 1 ml) (S. aureus No. 1257; 4.0 wt %, exposure 30 min): NG
- Bacterial growth after exposure (colony-forming units in 1 ml) (S. aureus No. 1257; 4.0 wt %, exposure 60 min): NG
- Bactericidal effect (S. aureus No. 1257; 4.0%, exposure from 15 min): sustained bactericidal effect

Compound: C=CC(=O)[O-].CCCCCCCCCCC(=O)[O-].[Zn+2] [Zinc acrylate-undecylate]
- Tolerance time (fungal spores; [2]): 10 days
- Tolerance time (fungal spores; [3]): 12 days
- Tolerance time (fungal spores; Paper impregnated with petrolatum base, additive content 4.7 wt %, untreated control 15 days): 20 days

Compound: Copper methacrylate-sorbate
- Bacterial growth after exposure (colony-forming units in 1 ml) (E. coli No. 906; 2.0 wt %, exposure 5 min): >300 CFU
- Bacterial growth after exposure (colony-forming units in 1 ml) (E. coli No. 906; 2.0 wt %, exposure 15 min): 78 CFU
- Bacterial growth after exposure (colony-forming units in 1 ml) (E. coli No. 906; 2.0 wt %, exposure 30 min): 45 CFU and 53 CFU
- Bacterial growth after exposure (colony-forming units in 1 ml) (E. coli No. 906; 2.0 wt %, exposure 60 min): 5 CFU and 4 CFU
- Bacterial growth after exposure (colony-forming units in 1 ml) (E. coli No. 906; 4.0 wt %, exposure 5 min): 1 CFU
- Bacterial growth after exposure (colony-forming units in 1 ml) (E. coli No. 906; 4.0 wt %, exposure 15 min): NG
- Bacterial growth after exposure (colony-forming units in 1 ml) (E. coli No. 906; 4.0 wt %, exposure 30 min): NG
- Bacterial growth after exposure (colony-forming units in 1 ml) (E. coli No. 906; 4.0 wt %, exposure 60 min): NG
- Bactericidal effect (E. coli No. 906; 4.0%, exposure from 15 min): sustained bactericidal effect
- Bactericidal effect ([1]; exposure from 15 min): sustained bactericidal effect
- Bacterial growth after exposure (colony-forming units in 1 ml) (S. aureus No. 1257; 2.0 wt %, exposure 5 min): >300 CFU
- Bacterial growth after exposure (colony-forming units in 1 ml) (S. aureus No. 1257; 2.0 wt %, exposure 15 min): 85 CFU
- Bacterial growth after exposure (colony-forming units in 1 ml) (S. aureus No. 1257; 2.0 wt %, exposure 30 min): 35 CFU and 43 CFU
- Bacterial growth after exposure (colony-forming units in 1 ml) (S. aureus No. 1257; 4.0 wt %, exposure 5 min): NG
- Bacterial growth after exposure (colony-forming units in 1 ml) (S. aureus No. 1257; 4.0 wt %, exposure 15 min): NG
- Bacterial growth after exposure (colony-forming units in 1 ml) (S. aureus No. 1257; 4.0 wt %, exposure 30 min): NG
- Bacterial growth after exposure (colony-forming units in 1 ml) (S. aureus No. 1257; 4.0 wt %, exposure 60 min): NG
- Bactericidal effect (S. aureus No. 1257; 4.0%, exposure from 15 min): sustained bactericidal effect

Compound: Copper methacrylate-valerate
- Tolerance time (fungal spores; [2]): 16 days

Compound: Zinc methacrylate-butyrate
- Tolerance time (fungal spores; [2]): 11 days
- Tolerance time (fungal spores; [3]): 10 days

Compound: Zinc methacrylate-myristate
- Tolerance time (fungal spores; [2]): 12 days
